Details in all cases: Homo sapiens
Assay [1] relates to A549. Description: Inhibitory concentration (resynthesized pure material) against TNF-alpha induced apoptosis of A549 cells. It is filed as functional, cell-based.
Assay [2] concerns A549. In words: Inhibitory concentration (solid phase) against TNF-alpha induced apoptosis of A549 cells. The class given is functional, cell-based.
In assay [3] the test system is A549. Description: Inhibitory concentration (resynthesized pure material) against TNF-alpha induced apoptosis of A549 cells at 20 uM. The class given is functional.

Consider `CCCCCN(CCCCC)C(=O)[C@@H]1C[C@H](Oc2ccc(C[C@H](NC(=O)c3cnc4ccccc4c3)C(N)=O)cc2)CN1C(=O)c1cnc2ccccc2c1`, for which the figures for the IC50 in the assay with A549 [1] and in the assay with A549 [2] were 12.9 µM and 15.4 µM, respectively. Turning to `CCCCCN(CCCCC)C(=O)[C@@H]1C[C@H](Oc2ccc(C[C@H](NC(=O)C(CC)CC)C(N)=O)cc2)CN1C(=O)c1cnc2ccccc2c1`, the concentration for half-maximal inhibition (IC50) in the assay with A549 [1] stood at 10.1 µM.

Compound `CCCCCN(CCCCC)C(=O)[C@@H]1C[C@H](Oc2ccc(C[C@H](NC(=O)CC)C(N)=O)cc2)CN1C(=O)c1cnc2ccccc2c1` returned an inhibition at 20 µM in the assay on A549 [3] of 35%. On to `CCCCCN(CCCCC)C(=O)[C@@H]1C[C@H](Oc2ccc(C[C@H](NC(=O)Cc3ccccc3)C(N)=O)cc2)CN1C(=O)c1cnc2ccccc2c1`, for which the results for the concentration for half-maximal inhibition (IC50) in the assay with A549 [1] and in the assay with A549 [2] were 8.1 µM and 11.1 µM, respectively.

The values are drawn from ChEMBL document CHEMBL1146628, “Identification of TNF-alpha inhibitors from a split-pool library based on a tyrosine-proline peptidomimetic scaffold” (Bioorg Med Chem Lett, 2003).
